These results are taken from patent US11371013B2, “Culture medium composition and method of culturing cell or tissue using thereof” (Nissan Chemical Industries, Ltd., priority 2012, dated 2022).

Series [1] has as its system HepG2 cells. The experiment in a line: Toxicity test of compound to hepatocytes: number of viable cells (Cell Titer-Glo). The format is cell-based, human. As to conditions: 1 day, DAG 0.015%, no addition = 1. How it is done:
(§1) This aqueous solution was sterilized at 121° C. for 20 min in an autoclave. On the other hand, HepG2 cells was mixed with DMEM medium (manufactured by WAKO) at 100000 cells/mL, and the cell suspension was dispensed to the wells of a 96-well flat bottom ultra low adhesion surface microplate (manufactured by Corning Incorporated, #3474) at 100 μL/well. […] Successively, this plate was cultured by being stood still in a CO2 incubator (37° C., 5% CO2) for 1 day.
The culture medium (50 μL) after culturing for 1 day was dispensed to a 96-well titer plate (manufactured by Corning Incorporated), to this culture medium was added a Cell Titer-Glo (registered trade mark) reagent (manufactured by Promega, 50 μL), and the mixture was incubated at room temperature for 10 min. The luminescence intensity was measured by a multiplate reader is (manufactured by Molecular Devices, FlexStation3) to measure the number of viable cells.

Series [2] deals with HepG2 cells. Kind of series: Toxicity test of compound to hepatocytes: lactic acid dehydrogenase (LDH) activity measurement. The class given is cell-based, human. To be noted: 1 day, DAG 0.015%. As for the experimental part:
as §1
To the culture medium (100 μL) after culturing for 1 day was added DMEM medium (manufactured by WAKO, 100 μL), and the plate was centrifuged by 440G for 15 min. The supernatant (100 μL) was dispensed to a 96-well titer plate (manufactured by Corning Incorporated), a reaction mixture (100 μL) in a cytotoxicity detection kit (manufactured by Roche Applied Science) was added, and the mixture was stood under shading at room temperature for 30 min. Successively, according to the protocol of the above-mentioned kit, the absorbance at 490 nm (reference; 600 nm) was measured by an absorbance spectrometer (manufactured by Molecular Devices, SPECTRA MAX 190), whereby the rate of the disordered cell, that is, cell disorder rate (%), was measured.

Series [3] can be described thus: Viscosity measurement of medium composition (E type viscometer). As to conditions: 37°C, 100 rpm. The format is physicochemical. How it is done: The viscosity of the liquid containing the structure can be measured, for example, by the method described in the below-mentioned Examples. Specifically, it can be measured under 37° C. conditions and using an E-type viscosity meter (manufactured by Toki Sangyo Co., Ltd., TV-22 type viscosity meter, model: TVE-22L, corn roter: standard roter 1° 34′×R24, rotation number 100 rpm).
(§2) This aqueous solution was allowed to cool to room temperature with stirring, and sterilized at 121° C. for 20 min in an autoclave. […] The viscosity of the medium compositions was measured using an E type viscometer (manufactured by Toki Sangyo Co., Ltd., Viscometer TVE-22L, standard roter 1° 34′×R24) under 37° C. condition at 100 rpm for 5 min.
The medium compositions prepared above were subjected to a suspension test of HeLa cell spheres and a viscosity measurement, in the same manner as with the deacylated gellan gum-containing medium. The viscosity of 1.0% (w/v) methylcellulose was measured at 50 rpm due to the measurement range of the apparatus.
In the same manner as in Experimental Example 2, spheres of HeLa cells were formed, and several tens of the spheres were added to each medium (1 mL) prepared above, the mixture was stood still at 37° C. for 1 hr, and the suspended state of the sphere cells was visually observed. […] Furthermore, it was confirmed that addition of an equal amount of the medium to the cell suspension and centrifugation (300 to 400G, 5 min) thereof result in sedimentation and recovery of the spheres of HeLa cells. The suspended state of the spheres of HeLa cells cultured in the medium composition of the present invention is each shown in FIG. 11.
(§3) The final concentration of polysaccharide was set to 0.1% (w/v) for xanthan gum, sodium alginate, locust bean gum, 0.2% (w/v) for methylcellulose, and 0.05% (w/v) for K-carageenan and diutan gum. The state of each medium composition and the viscosity measured by a method similar to that in Analysis Example 1 are shown in Tables 11-16.

A short description of series [4]: State of medium composition (liquid/solid). The class given is physicochemical. As for the experimental part: as §2
DMEM/F-12 medium (manufactured by Aldrich, 100 mL) was placed in a 200 mL pear-shaped flask, and methylcellulose (M0387, manufactured by Aldrich, […]) was added. The mixture was stirred while cooling in an ice bath to dissolve methylcellulose. Using this solution, medium compositions added with the aqueous methylcellulose solution at a final concentration of 0.1, 0.3, 0.6 or 1.0% (w/v) were prepared.
A 10-fold concentration of DMEM/F-12 medium (manufactured by Aldrich, 1 mL), a buffer for reconstitution (manufactured by Nitta Gelatin Inc., 1 mL) and pure water (1.5 mL) were added to 0.3% cell matrix type I-A (manufactured by Nitta Gelatin Inc., 6.5 mL), and the mixture was stirred in an ice to give a 0.2% collagen-containing medium. Similarly, medium compositions added with collagen at a final concentration of 0.01, 0.05, 0.1 or 0.2% (w/v) were prepared.
as §3

For the compound `Cc1c(C)c2c(c(C)c1O)CCC(C)(COc1ccc(CC3SC(=O)NC3=O)cc1)O2` (stereo not shown) [Troglitazone], the relative cell number in the series with HepG2 cells [1] (20 μM) is reported as 0.68; in the series on HepG2 cells [1] (40 μM), 0.50; in the series on HepG2 cells [1] (60 μM), 0.48; in the series on HepG2 cells [1] (100 μM), 0.39. Moreover, the cell disorder rate in the series with HepG2 cells [2] (20 μM) stood at 2.68%; in the series with HepG2 cells [2] (40 μM), 14.7%; in the series with HepG2 cells [2] (60 μM), 22.5%; in the series with HepG2 cells [2] (100 μM) it was 60.7%.
With collagen, the viscosity is 1.18 mPa · s in series [3] (0.01% (w/v) in DMEM/F-12), “unmeasurable” in series [3] (0.05% (w/v) in DMEM/F-12), “unmeasurable” in series [3] (0.1% (w/v) in DMEM/F-12) and “unmeasurable” in series [3] (0.2% (w/v) in DMEM/F-12). The state entry in series [4] (0.01% (w/v) in DMEM/F-12) was “liquid”; in series [4] (0.05% (w/v) in DMEM/F-12) it was “liquid/solid”; in series [4] (0.1% (w/v) in DMEM/F-12), “solid (gel)”; in series [4] (0.2% (w/v) in DMEM/F-12) it was “solid (gel)”.
